Tests used:
Conditions in all cases: 72 h
ML-2 [1] = system: ML-2
Method in brief: (§1)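 The IC50 was read from log-logistic dose–response fits. Fifteen myeloid leukaemia lines were exposed for 72 h at 37 °C with 5% CO2 to five tenfold doses from 1 to 10,000 nM in duplicate. ATP luminescence, normalised to vehicle and to a 10 µM positive control, was fitted with four parameters.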

KCL-22 [2] = system: KCL-22
Method in brief: as §1

HEL [3] = system: HEL
Method in brief: as §1

KG-1 [4] = system: KG-1
Method in brief: as §1

MOLM-13 [5] = system: MOLM-13
Method in brief: as §1

HL-60 [6] = system: HL-60
Method in brief: as §1

LAMA-84 [7] = system: LAMA-84
Method in brief: as §1

Mono-Mac-6 [8] = system: Mono-Mac-6
Method in brief: as §1

NOMO-1 [9] = system: NOMO-1
Method in brief: as §1

KU-812 [10] = system: KU-812
Method in brief: as §1

THP-1 [11] = system: THP-1
Method in brief: as §1

K-562 [12] = system: K-562
Method in brief: as §1

SHI-1 [13] = system: SHI-1
Method in brief: as §1

MV4-11 [14] = system: MV4-11
Method in brief: as §1

BV-173 [15] = system: BV-173
Method in brief: as §1

ML-2 [16] = experiment: cell viability (% survival relative to DMSO control, bortezomib = 0%); higher = less cytotoxic
Method in brief: (§2)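 After 72 h at 37 °C with 5% CO2, cell viability in 384-well plates was measured by CellTiter-Glo luminescence. The plates held compounds pre-printed at 1, 10, 100, 1000 or 10000 nM in duplicate, and cells from 10 AML and 5 CML lines seeded at densities titrated to linear growth. Percent survival is the duplicate mean, normalised to vehicle as 100% and a 10 µM positive control as 0%.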

KCL-22 [17] = experiment: as above
Method in brief: as §2

HEL [18] = experiment: as above
Method in brief: as §2

KG-1 [19] = experiment: as above
Method in brief: as §2

MOLM-13 [20] = experiment: as above
Method in brief: as §2

HL-60 [21] = experiment: as above
Method in brief: as §2

LAMA-84 [22] = experiment: as above
Method in brief: as §2

Mono-Mac-6 [23] = experiment: as above
Method in brief: as §2

NOMO-1 [24] = experiment: as above
Method in brief: as §2

KU-812 [25] = experiment: as above
Method in brief: as §2

THP-1 [26] = experiment: as above
Method in brief: as §2

K-562 [27] = experiment: as above
Method in brief: as §2

SHI-1 [28] = experiment: as above
Method in brief: as §2

MV4-11 [29] = experiment: as above
Method in brief: as §2

BV-173 [30] = experiment: as above
Method in brief: as §2

OC[C@H]1OC(O)C[C@@H](O)[C@@H]1O (stereo not given in full) [2-deoxyglucose]
Conditions	IC50 (cell viability) [µM]
BV-173 [15]	> 10
HEL [3]	> 10
HL-60 [6]	> 10
K-562 [12]	> 10
KCL-22 [2]	> 10
KG-1 [4]	> 10
KU-812 [10]	> 10
LAMA-84 [7]	> 10
ML-2 [1]	> 10
MOLM-13 [5]	> 10
MV4-11 [14]	> 10
Mono-Mac-6 [8]	> 10
NOMO-1 [9]	> 10
SHI-1 [13]	> 10
THP-1 [11]	> 10

cell viability [%]
Conditions	1 nM	10 nM	100 nM	1000 nM	10000 nM
BV-173 [30]	126	107	109	90.4	106
HEL [18]	123	113	112	93.3	95.1
HL-60 [21]	82.5	92	106	102	94.7
K-562 [27]	107	117	94.2	101	99.6
KCL-22 [17]	110	107	107	90.6	104
KG-1 [19]	111	95.2	98.9	82.6	92.9
KU-812 [25]	105	101	101	85.1	95.5
LAMA-84 [22]	107	114	95.6	86.3	96.8
ML-2 [16]	101	110	102	89.4	96.1
MOLM-13 [20]	86.7	108	93	90.1	86.4
MV4-11 [29]	102	91.4	100	92	110
Mono-Mac-6 [23]	65.6	99.3	102	89.4	99.2
NOMO-1 [24]	112	100	107	87.9	93.6
SHI-1 [28]	112	105	105	93.4	98.3
THP-1 [26]	92	96.1	105	86.9	100

CCCCCCCNC=O [N-Heptyl-Formamide]
Conditions	IC50 (cell viability) [µM]
BV-173 [15]	> 10
HEL [3]	> 10
HL-60 [6]	> 10
K-562 [12]	> 10
KCL-22 [2]	> 10
KG-1 [4]	> 10
KU-812 [10]	> 10
LAMA-84 [7]	> 10
ML-2 [1]	> 10
MOLM-13 [5]	> 10
MV4-11 [14]	> 10
Mono-Mac-6 [8]	> 10
NOMO-1 [9]	> 10
SHI-1 [13]	> 10
THP-1 [11]	> 10

cell viability [%]
Conditions	1 nM	10 nM	100 nM	1000 nM	10000 nM
BV-173 [30]	112	98.3	90.4	123	95.5
HEL [18]	109	97.9	80.9	112	92.1
HL-60 [21]	108	115	95.3	143	91.7
K-562 [27]	116	108	99	122	96.3
KCL-22 [17]	101	109	90.1	113	98.8
KG-1 [19]	99.6	110	86.4	108	95.5
KU-812 [25]	108	97.3	98.9	107	91.7
LAMA-84 [22]	101	99.3	104	112	98.1
ML-2 [16]	121	106	88.8	117	90.9
MOLM-13 [20]	113	98.3	89.9	108	90.3
MV4-11 [29]	106	105	93.7	105	94.4
Mono-Mac-6 [23]	110	97.3	101	114	96.8
NOMO-1 [24]	110	96.7	100	113	93
SHI-1 [28]	109	104	101	114	97.1
THP-1 [26]	110	97.1	97.1	104	96.7

O=c1oc2c(cc1O)oc(=O)c1cc(O)c(O)c(O)c12 [Galloflavin]
Conditions	IC50 (cell viability) [µM]
BV-173 [15]	> 10
HEL [3]	> 10
HL-60 [6]	> 10
K-562 [12]	> 10
KCL-22 [2]	> 10
KG-1 [4]	> 10
KU-812 [10]	> 10
LAMA-84 [7]	> 10
ML-2 [1]	> 10
MOLM-13 [5]	> 10
MV4-11 [14]	> 10
Mono-Mac-6 [8]	> 10
NOMO-1 [9]	> 10
SHI-1 [13]	> 10
THP-1 [11]	> 10

cell viability [%]
Conditions	1 nM	10 nM	100 nM	1000 nM	10000 nM
BV-173 [30]	91	97.5	99.4	108	118
HEL [18]	99.7	98.6	122	106	107
HL-60 [21]	108	101	114	180	186
K-562 [27]	107	105	100	116	112
KCL-22 [17]	103	95.3	102	104	112
KG-1 [19]	92.7	97.2	114	115	100
KU-812 [25]	94.8	96	90.7	96.6	105
LAMA-84 [22]	93.7	95	106	98.2	99.4
ML-2 [16]	101	95	113	111	115
MOLM-13 [20]	99.3	120	92	115	119
MV4-11 [29]	100	102	94.5	106	102
Mono-Mac-6 [23]	92.9	99.7	113	113	100
NOMO-1 [24]	91.8	97.7	99.1	102	106
SHI-1 [28]	108	105	106	112	104
THP-1 [26]	98	99.3	101	99.4	108

C#CCN[C@@H]1CCc2ccccc21 [Rasagiline]
Conditions	IC50 (cell viability) [µM]
BV-173 [15]	> 10
HEL [3]	> 10
HL-60 [6]	> 10
K-562 [12]	> 10
KCL-22 [2]	> 10
KG-1 [4]	> 10
KU-812 [10]	> 10
LAMA-84 [7]	> 10
ML-2 [1]	> 10
MOLM-13 [5]	> 10
MV4-11 [14]	> 10
Mono-Mac-6 [8]	> 10
NOMO-1 [9]	> 10
SHI-1 [13]	> 10
THP-1 [11]	> 10

cell viability [%]
Conditions	1 nM	10 nM	100 nM	1000 nM	10000 nM
BV-173 [30]	92.1	104	111	93.6	92.4
HEL [18]	118	115	117	90.1	135
HL-60 [21]	95.8	86.6	96.9	76.2	135
K-562 [27]	103	100	100	87.5	84.2
KCL-22 [17]	80.3	108	98.4	89.7	135
KG-1 [19]	88.3	116	98.5	89.8	114
KU-812 [25]	94.1	104	97.1	90.3	111
LAMA-84 [22]	98.2	106	106	91.8	97.2
ML-2 [16]	89.9	104	105	87.2	104
MOLM-13 [20]	93.9	109	111	95.9	111
MV4-11 [29]	97.8	104	108	91.7	96
Mono-Mac-6 [23]	92.4	105	101	80.9	100
NOMO-1 [24]	95.2	103	103	93.2	102
SHI-1 [28]	97.8	103	100	95.3	117
THP-1 [26]	102	102	103	96	101

O=NN(CCCl)C(=O)NCCCl [Carmustine]
Conditions	IC50 (cell viability) [µM]
BV-173 [15]	> 10
HEL [3]	> 10
HL-60 [6]	> 10
K-562 [12]	> 10
KCL-22 [2]	> 10
KG-1 [4]	> 10
KU-812 [10]	> 10
LAMA-84 [7]	> 10
ML-2 [1]	> 10
MOLM-13 [5]	> 10
MV4-11 [14]	> 10
Mono-Mac-6 [8]	> 10
NOMO-1 [9]	> 10
SHI-1 [13]	> 10
THP-1 [11]	> 10

cell viability [%]
Conditions	1 nM	10 nM	100 nM	1000 nM	10000 nM
BV-173 [30]	102	120	105	95.3	78.5
HEL [18]	98.3	114	111	103	101
HL-60 [21]	98.8	101	98.1	97.8	101
K-562 [27]	95.1	123	75.8	111	101
KCL-22 [17]	83.1	122	104	88.8	97.4
KG-1 [19]	110	114	108	102	97.5
KU-812 [25]	99.4	118	114	98.5	97.1
LAMA-84 [22]	98.7	93.1	105	92.9	99.3
ML-2 [16]	104	122	106	96	106
MOLM-13 [20]	97.6	106	98.2	106	101
MV4-11 [29]	96.3	104	103	106	83.4
Mono-Mac-6 [23]	106	97.8	99.8	109	117
NOMO-1 [24]	102	103	104	100	99
SHI-1 [28]	87	109	97.6	128	104
THP-1 [26]	97.6	107	102	101	98.9

Source: the supplement of paper PMC8671470
